{
  "source": "patent US4545932A",
  "about": "“Glucosaminyl muramyl peptide derivatives” (Dainippon Pharmaceutical Co., Ltd., priority 1982, dated 1985)",
  "type_in_all_cases": "in vivo",
  "key": {"[1]": {"test_system": "Staphylococcus aureus No. 50774", "assay": "Prophylactic effect on experimental infection, Staphylococcus aureus", "settings": "Std-ddY male mice, 14 days after infection", "source_text": "(§1) Std-ddY male mice weighing about 23 g (each group: 8 mice) were used. Test compounds dissolved in a physiological saline solution were each intravenously administered to mice once a day 1, 2 and 3 days before the infection. Twenty-four hours after the final administration of test compounds, the mice were infected with various microorganisms suspended in saline (in case of Staphylococcus aureus and Candida albicans) or in Trypto-Soy Broth (manufactured by Eiken Chemical Co., Ltd., Japan) (in case of Pseudomonas aeruginosa and Escherichia coli) under the conditions as shown in Table 1. When the experiment was repeated twice or more, the data were pooled.\n(§2) ^a Test compounds were intravenously administered once a day 1, 2 and\n(§3) 3 days before infection.\n(§4) ^b Figures represent (number of survivals)/(number of animals tested)\n(§5) and figures in parenthesis represent percent survival."}, "[2]": {"test_system": "Pseudomonas aeruginosa No. 12", "assay": "Prophylactic effect on experimental infection, Pseudomonas aeruginosa", "settings": "Std-ddY male mice, 7 days after infection", "source_text": "as §1, §2, §3, §4, §5"}, "[3]": {"test_system": "Candida albicans 3170", "assay": "Prophylactic effect on experimental infection, Candida albicans", "settings": "Std-ddY male mice, 7 days after infection", "source_text": "as §1\n3170 fungal sus- infection\nas §2, §3, §4, §5"}, "[4]": {"test_system": "Escherichia coli P-5101", "assay": "Prophylactic effect on experimental infection, Escherichia coli", "settings": "Std-ddY male mice, 7 days after infection", "source_text": "as §1, §2, §3, §4, §5"}, "[5]": {"assay": "Pyrogenicity in rabbits", "settings": "for Pyrogenicity in rabbits: injected into ear vein, three rabbits per group", "method": "Rabbits (each group: three rabbits) were used. Test compounds dissolved in a physiological saline solution were each injected into ear vein of rabbits. The difference between maximum body temperature within three hours after the injection of test compound and the body temperature before the injection was regarded as rise in body temperature. The degree of pyrogenicity was evaluated according to the following criterion: […]"}, "[6]": {"test_system": "various microorganisms", "assay": "Antiinfectious effect in mice", "settings": "similar experiments; no data given", "source_text": "as §1\nBesides, as to the compounds of Examples 8, 18, 36, 37 and 45 (derivatives of GMP3 -A), similar experiments were done."}, "[7]": {"settings": "Dose 0.05 mg/kg i.v. once a day 1, 2 and 3 days before infection"}, "[8]": {"settings": "Dose 0.125 mg/kg i.v. once a day 1, 2 and 3 days before infection"}, "[9]": {"settings": "Dose 0.2 mg/kg i.v. once a day 1, 2 and 3 days before infection"}, "[10]": {"settings": "Dose 0.8 mg/kg i.v. once a day 1, 2 and 3 days before infection"}, "[11]": {"settings": "Dose 3.1 mg/kg i.v. once a day 1, 2 and 3 days before infection"}, "[12]": {"settings": "Dose 12.5 mg/kg i.v. once a day 1, 2 and 3 days before infection"}, "[13]": {"settings": "Dose 0.0125 mg/kg i.v. once a day 1, 2 and 3 days before infection"}, "[14]": {"settings": "Dose 50 mg/kg i.v. once a day 1, 2 and 3 days before infection"}, "[15]": {"settings": "similar experiments, no data given"}},
  "data": [
    {"smiles": "CC(=O)NC1C(OC2C(CO)OC(O)C(NC(C)=O)C2OC(C)C(=O)NC(C)C(=O)NC(CCC(=O)NC(CCCC(N)C(N)=O)C(=O)NC(C)C(=O)O)C(N)=O)OC(CO)C(O)C1O", "note": "[GMP4 -A, β-N-acetylglucosaminyl-(1→4)-N-acetylmuramyl-L-alanyl-D-isoglutaminyl-(L)-meso-2,6-diaminopimelic acid-(D)-amide-(L)-D-alanine, reference compound]", "values": [
      {"measurement": "(number of survivals)/(number of animals tested)", "setting": "[1]; [7]", "result": "3/24"},
      {"measurement": "percent survival", "setting": "[1]; [7]", "result": 12.5, "unit": "%"},
      {"measurement": "(number of survivals)/(number of animals tested)", "setting": "[1]; [8]", "result": "0/8"},
      {"measurement": "percent survival", "setting": "[1]; [8]", "result": 0, "unit": "%"},
      {"measurement": "(number of survivals)/(number of animals tested)", "setting": "[1]; [9]", "result": "6/16"},
      {"measurement": "percent survival", "setting": "[1]; [9]", "result": 37.5, "unit": "%"},
      {"measurement": "(number of survivals)/(number of animals tested)", "setting": "[1]; [10]", "result": "11/32"},
      {"measurement": "percent survival", "setting": "[1]; [10]", "result": 34.4, "unit": "%"},
      {"measurement": "(number of survivals)/(number of animals tested)", "setting": "[1]; [11]", "result": "11/32"},
      {"measurement": "percent survival", "setting": "[1]; [11]", "result": 34.4, "unit": "%"},
      {"measurement": "(number of survivals)/(number of animals tested)", "setting": "[1]; [12]", "result": "23/32"},
      {"measurement": "percent survival", "setting": "[1]; [12]", "result": 71.9, "unit": "%"},
      {"measurement": "(number of survivals)/(number of animals tested)", "setting": "[2]; [13]", "result": "12/40"},
      {"measurement": "percent survival", "setting": "[2]; [13]", "result": 30, "unit": "%"},
      {"measurement": "(number of survivals)/(number of animals tested)", "setting": "[2]; [7]", "result": "16/48"},
      {"measurement": "percent survival", "setting": "[2]; [7]", "result": 33.3, "unit": "%"},
      {"measurement": "(number of survivals)/(number of animals tested)", "setting": "[2]; [9]", "result": "23/56"},
      {"measurement": "percent survival", "setting": "[2]; [9]", "result": 41.1, "unit": "%"},
      {"measurement": "(number of survivals)/(number of animals tested)", "setting": "[2]; [10]", "result": "31/72"},
      {"measurement": "percent survival", "setting": "[2]; [10]", "result": 43.1, "unit": "%"},
      {"measurement": "(number of survivals)/(number of animals tested)", "setting": "[2]; [11]", "result": "27/64"},
      {"measurement": "percent survival", "setting": "[2]; [11]", "result": 42.2, "unit": "%"},
      {"measurement": "(number of survivals)/(number of animals tested)", "setting": "[2]; [12]", "result": "32/48"},
      {"measurement": "percent survival", "setting": "[2]; [12]", "result": 66.7, "unit": "%"},
      {"measurement": "(number of survivals)/(number of animals tested)", "setting": "[3]; [11]", "result": "2/8"},
      {"measurement": "percent survival", "setting": "[3]; [11]", "result": 25, "unit": "%"},
      {"measurement": "(number of survivals)/(number of animals tested)", "setting": "[3]; [12]", "result": "4/8"},
      {"measurement": "percent survival", "setting": "[3]; [12]", "result": 50, "unit": "%"},
      {"measurement": "(number of survivals)/(number of animals tested)", "setting": "[3]; [14]", "result": "6/8"},
      {"measurement": "percent survival", "setting": "[3]; [14]", "result": 75, "unit": "%"},
      {"measurement": "(number of survivals)/(number of animals tested)", "setting": "[4]; [9]", "result": "0/8"},
      {"measurement": "percent survival", "setting": "[4]; [9]", "result": 0, "unit": "%"},
      {"measurement": "(number of survivals)/(number of animals tested)", "setting": "[4]; [10]", "result": "0/8"},
      {"measurement": "percent survival", "setting": "[4]; [10]", "result": 0, "unit": "%"},
      {"measurement": "(number of survivals)/(number of animals tested)", "setting": "[4]; [11]", "result": "5/24"},
      {"measurement": "percent survival", "setting": "[4]; [11]", "result": 20.8, "unit": "%"},
      {"measurement": "(number of survivals)/(number of animals tested)", "setting": "[4]; [12]", "result": "10/24"},
      {"measurement": "percent survival", "setting": "[4]; [12]", "result": 41.7, "unit": "%"},
      {"measurement": "(number of survivals)/(number of animals tested)", "setting": "[4]; [14]", "result": "10/16"},
      {"measurement": "percent survival", "setting": "[4]; [14]", "result": 62.5, "unit": "%"},
      {"measurement": "Pyrogenicity in rabbits", "setting": "[5]; Dose 0.1 mg/rabbit", "result": "- (one animal showed rise in body temperature of 0.6 °C or more)"},
      {"measurement": "Pyrogenicity in rabbits", "setting": "[5]; Dose 0.3 mg/rabbit", "result": "+ (two or more animals showed rise in body temperature of 0.6 °C or more)"},
      {"measurement": "Pyrogenicity in rabbits", "setting": "[5]; Dose 1 mg/rabbit", "result": "+ (two or more animals showed rise in body temperature of 0.6 °C or more)"},
      {"measurement": "Pyrogenicity in rabbits", "setting": "[5]; Dose 3 mg/rabbit", "result": "+ (two or more animals showed rise in body temperature of 0.6 °C or more)"},
      {"measurement": "Pyrogenicity in rabbits", "setting": "[5]; Dose 10 mg/rabbit", "result": "+ (two or more animals showed rise in body temperature of 0.6 °C or more)"}
    ]},
    {"smiles": "CCCCCCCCCCNC(=O)C(CCCC(NC(C)=O)C(N)=O)NC(=O)CCC(NC(=O)C(C)NC(=O)C(C)OC1C(NC(C)=O)C(O)OC(CO)C1OC1OC(CO)C(O)C(O)C1NC(C)=O)C(N)=O", "note": "(stereo not shown) [Example 37]", "values": [
      {"measurement": "pyrogenicity compared with GMP3 -A", "setting": "[5]; rabbit, in vivo", "result": "by far the less than that of GMP3 -A"}
    ]},
    {"smiles": "CCCCCCCCCCCCCCCCCCNC(=O)C(CCCC(N)C(N)=O)NC(=O)CCC(NC(=O)C(C)NC(=O)C(C)OC1C(NC(C)=O)C(O)OC(CO)C1OC1OC(CO)C(O)C(O)C1NC(C)=O)C(N)=O.Cl", "note": "[Example 45, β-N-acetylglucosaminyl-(1→4)-N-acetylmuramyl-L-alanyl-D-isoglutaminyl-(L)-meso-2,6-diaminopimelic acid-(D)-amide-(L)-octadecylamide hydrochloride]", "values": [
      {"measurement": "pyrogenicity compared with GMP3 -A", "setting": "[5]; rabbit, in vivo", "result": "by far the less than that of GMP3 -A"}
    ]},
    {"smiles": "CCCCCCCCCCCCCCCCCC(=O)NC(CCCC(NC(=O)CCC(NC(=O)C(C)NC(=O)C(C)OC1C(NC(C)=O)C(O)OC(CO)C1OC1OC(CO)C(O)C(O)C1NC(C)=O)C(N)=O)C(=O)[O-])C(N)=O.[Na+]", "note": "(stereo not shown) [Example 18]", "values": [
      {"measurement": "pyrogenicity compared with GMP3 -A", "setting": "[5]; [15]", "result": "less pyrogenicity than GMP3 -A"},
      {"measurement": "antiinfectious effect compared with GMP3 -A", "setting": "[6]", "result": "more potent antiinfectious effect"}
    ]},
    {"smiles": "CCCCCCCCC=CCCCCCCCC(=O)NC(CCCC(NC(=O)CCC(NC(=O)C(C)NC(=O)C(C)OC1C(NC(C)=O)C(O)OC(CO)C1OC1OC(CO)C(O)C(O)C1NC(C)=O)C(N)=O)C(=O)[O-])C(N)=O.[Na+]", "note": "(stereo not shown) [Example 8]", "values": [
      {"measurement": "pyrogenicity compared with GMP3 -A", "setting": "[5]; [15]", "result": "less pyrogenicity than GMP3 -A"},
      {"measurement": "antiinfectious effect compared with GMP3 -A", "setting": "[6]", "result": "more potent antiinfectious effect"}
    ]},
    {"smiles": "CC(=O)NC(CCCC(NC(=O)CCC(NC(=O)C(C)NC(=O)C(C)OC1C(NC(C)=O)C(O)OC(CO)C1OC1OC(CO)C(O)C(O)C1NC(C)=O)C(N)=O)C(N)=O)C(N)=O", "note": "[Example 36, β-N-acetylglucosaminyl-(1→4)-N-acetylmuramyl-L-alanyl-D-isoglutaminyl-(L)-acetyl-(D)-meso-2,6-diaminopimelic acid-(D),(L)-diamide]", "values": [
      {"measurement": "pyrogenicity compared with GMP3 -A", "setting": "[5]; rabbit, in vivo", "result": "by far the less than that of GMP3 -A"}
    ]}
  ]
}
